Test results: ChEMBL document CHEMBL4251650, “Design and synthesis of 2-(4,5,6,7-tetrahydrothienopyridin-2-yl)-benzoimidazole carboxamides as novel orally efficacious Poly(ADP-ribose)polymerase (PARP) inhibitors” (Eur J Med Chem, 2018)

Experiments:
[1] = Permeability across apical to basolateral side in human Caco2 cells; assay type: ADME, cell-based; details: Caco-2, read-out: permeability
[2] = Solubility of the compound in pH 7 solution; assay type: physicochemical
[3] = Solubility of the compound in pH 6.8 solution; assay type: physicochemical
[4] = Solubility of the compound in pH 7.4 solution; assay type: physicochemical
[5] = Intrinsic clearance in mouse liver microsomes; assay type: ADME, microsome; details: read-out: CLH
[6] = Intrinsic clearance in rat liver microsomes; assay type: ADME, microsome; details: read-out: CLH
[7] = Intrinsic clearance in human liver microsomes; assay type: ADME, microsome; details: read-out: CLH
[8] = Clearance in Sprague-Dawley rat at 5 mg/kg, iv administered as single dose by LC-MS/MS analysis; assay type: ADME, organism-based; details: in vivo
[9] = Half life in Sprague-Dawley rat at 5 mg/kg, iv administered as single dose by LC-MS/MS analysis; assay type: ADME, organism-based; details: in vivo
[10] = Volume of distribution at steady state in Sprague-Dawley rat at 5 mg/kg, iv administered as single dose by LC-MS/MS analysis; assay type: ADME, organism-based; details: in vivo, read-out: Vdss
[11] = AUC (0 to infinity) in Sprague-Dawley rat at 10 mg/kg, po administered as single dose by LC-MS/MS analysis; assay type: ADME, organism-based; parameters: dose 10 mg/kg, time infinity, route oral; details: in vivo
[12] = Cmax in Sprague-Dawley rat at 10 mg/kg, po administered as single dose by LC-MS/MS analysis; assay type: ADME, organism-based; parameters: dose 10 mg/kg, route oral; details: in vivo
[13] = Tmax in Sprague-Dawley rat at 10 mg/kg, po administered as single dose by LC-MS/MS analysis; assay type: ADME, organism-based; details: in vivo
[14] = Oral bioavailability in Sprague-Dawley rat at 10 mg/kg administered as single dose by LC-MS/MS analysis; assay type: ADME, organism-based; details: in vivo

Structure (SMILES) | Papp A→B [1] [×10⁻⁶ cm/s] | solubility [2] [µM] | solubility [3] [µM] | solubility [4] [µM] | microsomal CLint [5] [µL/min/mg] | microsomal CLint [6] [µL/min/mg] | microsomal CLint [7] [µL/min/mg] | clearance [8] [mL/min/kg] | half-life [9] [min] | Vd [10] [L/kg] | AUC(0-inf) [11] [ng·h/mL] | Cmax [12] [ng/mL] | Tmax [13] [h] | bioavailability [14] [%]
Cn1c(-c2cc3c(s2)CNCC3)nc2c(C(N)=O)cc(F)cc21 | 2.65 | > 50 | > 50 | > 50 | 75 | 196 | 28 |  |  |  |  |  |  | 
NC(=O)c1cc(F)cc2[nH]c(-c3cc4c(s3)CNCC4)nc12 | 0.2 | > 50 | > 50 | > 50 | 123 | 340 | 23 |  |  |  |  |  |  | 
Cl.Cn1c(-c2cc3c(s2)CNCC3)nc2c(C(N)=O)cc(F)cc21 |  |  |  |  |  |  |  | 194 | 53.4 | 13.2 | 245 | 61.2 | 2.25 | 26
